Here are results for five molecules from patent US20260198499A1, “PLANT STOMATAL OPENING REGULATOR” (priority 2022, published 2026).

Read-outs that look alike come from different tables or passages of the source.

The subject of experiment [1] is stomatal aperture of Commelina benghalensis leaf disks. Nature of the experiment: Stomatal opening regulatory action measurement test 1 (IC50 of stomatal aperture, leaf disks). It counts as cell-based. As to conditions: read-out: IC50 (50% inhibitory concentration of stomatal aperture). On the procedure:
(§1) Part of the stem of Commelina benghalensis was inserted into a planter filled with mixed soil of vermiculite and peat moss, and grown indoors with natural light (room temperature: 25±3° C.) for 2 to 4 weeks. The planter was placed in a dark room and subjected to dark treatment overnight. After the dark treatment, leaf disks with a diameter of 4 mm were cut from fully expanded leaves using a hole punch (Biospy Punch, Kai Medical).
Each test solution was dispensed into five wells of a 96-well plate at 50 μl/well, and the leaf disks were immersed therein, followed by incubation under light irradiation (50 μmol m^−2s^−1 blue light) for 3 hours. After incubation, stomatal closure was evaluated under observation images (600×) using a stereofluorescence microscope (Leica M205FA). The minor diameter of about 20 stomata (hereinafter referred to as “stomatal aperture”) was measured for each leaf disk.

Experiment [2] concerns stomatal opening in intact leaves of chrysanthemums. Nature of the experiment: Stomatal opening regulatory action measurement test 3 (intact chrysanthemum leaves). It is filed as in vivo. The settings on record: for inhibitory effect on stomatal opening in intact leaves: chrysanthemum leaves immersed in test solution, white light 3 hours, FIGS. 4 and 5. The protocol: (§2) A bouquet of chrysanthemums (Chrysanthemum) was purchased and cultured in a water bottle at 24° C. with a photoperiod of 16 h white light (100 μmol m^−2s^−1)/8 h darkness for 2 days. After the dark period ended, the leaves were immersed in a test solution (0.033% Makupika (spreader, Isk Biosciences K. K.)) containing the test compound (compound 1 (BITC), compound 4 (m-Bis-BITC), or abscisic acid (ABA)) and incubated under white light (100 μmol m^−2s^−1) for 3 hours or incubated with a photoperiod of 16 h light/16 h darkness (light→dark→light) for 48 hours. After incubation, the stomatal aperture was measured in the same manner as in Test Example 1.

The subject of experiment [3] is chrysanthemums (Chrysanthemum). Put plainly: Drought tolerance test 1 (dehydrated chrysanthemum bouquet). The settings on record: 21° C., 90 minutes, relative humidity 35 to 40%, FIG. 6. It is filed as in vivo. The protocol: as §2
After incubation for 3 hours in Test Example 5, the bouquet was dehydrated and incubated at 21° C. for 90 minutes under 10 μmol m^−2s^−1 white light at a relative humidity of 35 to 40%.

In experiment [4] the test system is ABA-responsive kinase substrate (AKS). Nature of the experiment: Immunoblot analysis of phosphorylation of ABA-responsive kinase substrate (AKS) in guard cells. It counts as cell-based. The settings on record: compound 1 100 μM; Vicia faba guard cells; FIG. 3. On the procedure:
Abscisic acid (ABA)-induced phosphorylation of ABA-responsive kinase substrate (AKS) in guard cells from the epidermis of broad bean (Vicia faba) was measured by immunoblot analysis as previously reported (Takahashi et al. (2007) Protein Phosphorylation and Binding of a 14-3-3 Protein in Vicia Guard Cells in Response to ABA. Plant and Cell Physiology. 48:1182-1191). The test compounds used were compound 1 (BITC) and abscisic acid. The concentration of compound 1 during action was 100 μM, and the concentration of abscisic acid during action was 20 μM.

Experiment [5] has as its system ABA-related responses in Arabidopsis thaliana. Nature of the experiment: ABA-related responses (seed germination, ABA-responsive genes RAB18 and RD29B). It counts as in vivo.
The test system of experiment [6] is stomatal opening of leaf disks. Put plainly: Stomatal opening regulatory action measurement test 2 (light- and fusicoccin-induced stomatal opening). It is filed as cell-based, Commelina benghalensis. As to conditions: compound 1 100 μM, FIG. 1. The protocol: as §1
[…] After incubation, stomatal closure was evaluated under observation images (600×) using a stereofluorescence microscope (Leica M205FA). The minor diameter of about 20 stomata (hereinafter referred to as “stomatal aperture”) was measured for each leaf disk. Based on the measured values of stomatal aperture at each concentration for each test compound, the 50% inhibitory concentration (IC50) of stomatal aperture was calculated.
Compound 1 (BITC: benzyl isothiocyanate) (final concentration in the test solution: 100 μM) and abscisic acid (final concentration in the test solution: 20 µM) were used as test compounds. A test solution was also prepared by adding fusicoccin (final concentration: 10 μM) in addition to the test compound. […] The mean and standard deviation (SD) were calculated based on the measured values.

In experiment [7] the test system is plasma membrane proton pump (H+-ATPase) phosphorylation in guard cells. Put plainly: Immunohistochemical measurement of blue light- and fusicoccin-induced phosphorylation of the plasma membrane proton pump in guard cells. It counts as cell-based, Arabidopsis thaliana. As to conditions: compound 1 100 μM, compound 4 20 µM, compound 5 20 μM, FIG. 2; for inhibitory effect on blue light-induced phosphorylation of the plasma membrane proton pump: Arabidopsis guard cells; for inhibitory effect on fusicoccin-induced phosphorylation of the plasma membrane proton pump: fusicoccin 10 μM. The protocol: Blue light- and fusicoccin-induced phosphorylation of the plasma membrane proton pump in guard cells from the epidermis of Arabidopsis thaliana was measured immunohistochemically as previously reported (Hayashi et al. (2011) Immunohistochemical detection of blue light-induced phosphorylation of the plasma membrane H^+-ATPase in stomatal guard cells. Plant Cell Physiol. 52:1238-1248). The test compounds used were compound 1 (BITC), compound 4 (m-Bis-BITC), and compound 5 (Tris-BITC). The concentration of compound 1 during action was 100 μM, the concentration of compound 4 during action was 20 µM, the concentration of compound 5 during action was 20 μM, and the concentration of fusicoccin during action was 10 μM.

Experiment [8] concerns Chinese cabbage (Brassica rapa). Put plainly: Drought tolerance test 2 (sprayed Chinese cabbage, water depleted). It counts as in vivo. As to conditions: Chinese cabbage sprayed with 50 μM, 24 hours, 25° C., relative humidity 40 to 50%, FIG. 7. On the procedure:
A test solution (0.033% Makupika (spreader, Isk Biosciences K.K.)) containing compound 4 (m-Bis-BITC) was sprayed onto 4- to 5-week-old Chinese cabbage (Brassica rapa) growing in 110 ml of soil. The concentration of compound 4 in the test solution was 50 μM. Then, the water was depleted, and the plants were cultured for 24 hours in a greenhouse at 25° C. at a relative humidity of 40 to 50% on a sunny day.

Where [9] appears, read: Commelina benghalensis leaf disks, 3 hours under 50 μmol m−2s−1 blue light.

With `S=C=NCc1ccccc1` [Compound 1, benzyl isothiocyanate], the IC50 in experiment [1] (setting [9]) amounted to 29.1 µM. Further, the “inhibitory effect on stomatal opening in intact leaves” value in experiment [2] is “inhibitory effect on stomatal opening even in intact leaves”. Also, the “drought tolerance and wilting” value in experiment [3] was “could improve drought tolerance and suppress wilting”. In addition, the “induction of phosphorylation of the ABA-responsive kinase substrate” value in experiment [4] is reported as “did not induce phosphorylation”. Also, the “effect on ABA-related responses, including inhibition of seed germination and induction of ABA-responsive genes (RAB18 and RD29B)” value in experiment [5] is on record as “no effect”. Also, the “inhibitory effect on stomatal opening compared with abscisic acid” value in experiment [6] (abscisic acid 20 µM, 3 hours red and blue light) was “more potent inhibitory effect on stomatal opening than abscisic acid”. In addition, the “inhibitory effect on stomatal opening induced by fusicoccin” value in experiment [6] (fusicoccin 10 μM, 3 hours) is on record as “exhibited an inhibitory effect on stomatal opening induced by fusicoccin”. Also, in experiment [7], the “inhibitory effect on blue light-induced phosphorylation of the plasma membrane proton pump” value is given as “inhibitory effects” and the “inhibitory effect on fusicoccin-induced phosphorylation of the plasma membrane proton pump” value is given as “inhibitory effects”.
Regarding `S=C=NCc1cccs1` [Compound 2], the IC50 in experiment [1] (Commelina benghalensis, 3 h) came to 20.6 µM.
On to `S=C=NCc1cccc(CN=C=S)c1` [Compound 4], for which the IC50 in experiment [1] (setting [9]) was 1.7 µM. In addition, the “inhibitory effect on stomatal opening in intact leaves” value in experiment [2] is “inhibitory effect on stomatal opening even in intact leaves”. Besides, in experiment [2] (chrysanthemum leaves, 48 hours incubation, m-Bis-BITC 50 µM, FIG. 5), the “persistence of the stomatal opening inhibitory effect” value was “excellent in the persistence”. Further, the “drought tolerance and wilting” value in experiment [3] was “could improve drought tolerance and suppress wilting”. Also, the “drought tolerance and wilting” value in experiment [8] was “could improve drought tolerance and suppress wilting over a long period of time”. Also, in experiment [7], the “inhibitory effect on blue light-induced phosphorylation of the plasma membrane proton pump” value is “inhibitory effects” and the “inhibitory effect on fusicoccin-induced phosphorylation of the plasma membrane proton pump” value is given as “inhibitory effects”.
On to `S=C=NCc1cc(CN=C=S)cc(CN=C=S)c1` [Compound 5, 1,3,5-tris(isothiocyanatomethyl)benzene], for which the IC50 in experiment [1] (Commelina benghalensis, 3 h) worked out at 0.44 µM. Also, in experiment [7], the “inhibitory effect on blue light-induced phosphorylation of the plasma membrane proton pump” value is “inhibitory effects” and the “inhibitory effect on fusicoccin-induced phosphorylation of the plasma membrane proton pump” value was “inhibitory effects”.
Turning to `S=C=NC[C@H]1CC[C@H](CN=C=S)CC1` [Compound 27, trans-1,4-bis(isothiocyanatomethyl)cyclohexane], in experiment [1] (Commelina benghalensis, 3 h), the IC50 is 11.4 µM.
